Active and inactive are the calls of the source. The rule behind the calls is not given here.
Test system: CCRIS mutagenicity, Ames/micronucleus/aberration tests
Assay: CCRIS mutagenicity studies
[1] = Test System: AMES SALMONELLA TYPHIMURIUM, Strain/Indicator: TA98, Metabolic Activation: HAMSTER, LIVER, S-9, AROCLOR 1254 (10%), Method: PREINCUBATION
[2] = Test System: AMES SALMONELLA TYPHIMURIUM, Strain/Indicator: TA98, Metabolic Activation: NONE, Method: PREINCUBATION
[3] = Test System: AMES SALMONELLA TYPHIMURIUM, Strain/Indicator: TA98, Metabolic Activation: RAT, LIVER, S-9, AROCLOR 1254 (10%), Method: PREINCUBATION
[4] = Test System: AMES SALMONELLA TYPHIMURIUM, Strain/Indicator: TA98, Metabolic Activation: RAT, LIVER, S-9, PCB, Method: PREINCUBATION
[5] = Test System: AMES SALMONELLA TYPHIMURIUM, Strain/Indicator: TA100, Metabolic Activation: HAMSTER, LIVER, S-9, AROCLOR 1254 (10%), Method: PREINCUBATION
[6] = Test System: AMES SALMONELLA TYPHIMURIUM, Strain/Indicator: TA100, Metabolic Activation: NONE, Method: PREINCUBATION
[7] = Test System: AMES SALMONELLA TYPHIMURIUM, Strain/Indicator: TA100, Metabolic Activation: RAT, LIVER, S-9, AROCLOR 1254 (10%), Method: PREINCUBATION
[8] = Test System: AMES SALMONELLA TYPHIMURIUM, Strain/Indicator: TA100, Metabolic Activation: RAT, LIVER, S-9, PCB, Method: PREINCUBATION
[9] = Test System: AMES SALMONELLA TYPHIMURIUM, Strain/Indicator: TA1535, Metabolic Activation: HAMSTER, LIVER, S-9, AROCLOR 1254 (10%), Method: PREINCUBATION
[10] = Test System: AMES SALMONELLA TYPHIMURIUM, Strain/Indicator: TA1535, Metabolic Activation: NONE, Method: PREINCUBATION
[11] = Test System: AMES SALMONELLA TYPHIMURIUM, Strain/Indicator: TA1535, Metabolic Activation: RAT, LIVER, S-9, AROCLOR 1254 (10%), Method: PREINCUBATION
[12] = Test System: AMES SALMONELLA TYPHIMURIUM, Strain/Indicator: TA1537, Metabolic Activation: HAMSTER, LIVER, S-9, AROCLOR 1254 (10%), Method: PREINCUBATION
[13] = Test System: AMES SALMONELLA TYPHIMURIUM, Strain/Indicator: TA1537, Metabolic Activation: NONE, Method: PREINCUBATION
[14] = Test System: AMES SALMONELLA TYPHIMURIUM, Strain/Indicator: TA1537, Metabolic Activation: RAT, LIVER, S-9, AROCLOR 1254 (10%), Method: PREINCUBATION

| SMILES | mutagenic call [1] | mutagenic call [2] | mutagenic call [3] | mutagenic call [4] | mutagenic call [5] | mutagenic call [6] | mutagenic call [7] | mutagenic call [8] | mutagenic call [9] | mutagenic call [10] | mutagenic call [11] | mutagenic call [12] | mutagenic call [13] | mutagenic call [14] | mutagenic call (Test System: AMES SALMONELLA TYPHIMURIUM, Strain/Indicator: TA100, Metabolic Activation: HAMSTER, LIVER, S-9, PCB, Method: PREINCUBATION) | mutagenic call (Test System: AMES SALMONELLA TYPHIMURIUM, Strain/Indicator: TA100, Metabolic Activation: RAT, LIVER, S-9, SODIUM PHENOBARBITAL AND BETA-NAPHTHOFLAVONE, Method: PREINCUBATION) | mutagenic call (Test System: UDS RAT HEPATOCYTES, Strain/Indicator: THY INCORP, Metabolic Activation: NONE, Method: AUTORADIOGRAPHY) | mutagenic call (End Point: IN VITRO CHROMOSOMAL ABERRATIONS, Test System: CHL CELLS, Metabolic Activation: NONE) |
| --- | --- | --- | --- | --- | --- | --- | --- | --- | --- | --- | --- | --- | --- | --- | --- | --- | --- | --- |
| CC(CCN(C)C)N(C)C (centres undefined) | inactive; negative | inactive; negative | inactive; negative | inactive; negative | inactive; negative | inactive; negative | inactive; negative | inactive; negative | inactive; negative | inactive; negative | inactive; negative | inactive; negative | inactive; negative | inactive; negative |  |  |  |  |
| C/C=C1/C[C@@H](C)[C@@](C)(O)C(=O)OCC2=CCN3CC[C@@H](OC1=O)[C@@H]23 |  |  |  |  |  |  |  | inactive; negative |  |  |  |  |  |  | inactive; negative | inactive; negative | active; positive |  |
| CCN(CC)c1ccc(N=Nc2c(Cl)cc([N+](=O)[O-])cc2[N+](=O)[O-])c(NC(C)=O)c1 |  |  |  |  |  |  |  |  |  |  |  |  |  |  |  |  |  | inactive; negative; precipitation of test chemical observed above 0.01 mg/ml |
| c1ccc(OP(Oc2ccccc2)Oc2ccccc2)cc1 | inactive; negative | inactive; negative | inactive; negative |  | inactive; negative | inactive; negative | inactive; negative |  | inactive; negative | inactive; negative | inactive; negative | inactive; negative | inactive; negative | inactive; negative |  |  |  |  |
| N#CCCC(=O)/C=C/c1ccc(C(=O)O)cc1 |  | inactive; negative |  | inactive; negative |  | inactive; negative |  | inactive; negative |  |  |  |  |  |  |  |  |  |  |
| Cc1cc(O)c2c(c1O)C(=O)c1ccccc1C2=O |  | inactive; negative |  | active; positive |  | inactive; negative |  | active; positive |  |  |  |  |  |  |  |  |  |  |
